Patent publication US20240317707A1, “COVALENT AND NON-COVALENT INHIBITORS OF CORONAVIRUS PAPAIN-LIKE PROTEASE” (UT-Battelle, LLC, priority 2023, published 2024)

Assays:
[1] = test system: SARS-CoV-2 isolate USA-WA1/2020; test: microbe, parasite or virus in culture; assay type: cell-based; conditions: Severe acute respiratory syndrome coronavirus 2, Vero C1008, Vero E6 TMPRSS ACE2 cells, treated 1 hr with compound, MOI=0.1, 48 h; for EC50: read-out: CPE EC50; for EC90: read-out: CPE EC90
[2] = in vitro; conditions: African green monkey

Row | SMILES | EC50 [1] [nM] | EC90 [1] [nM] | CC50 at 48 h [2] [nM]
1 | COC(=O)/C=C/C(=O)NNC(=O)C(F)(F)c1ccccc1C(=O)N[C@H](C)c1cccc2ccccc12 [NEU-7792] | 240 | 820 | > 10000
2 | COC(=O)/C=C/C(=O)NNC(=O)CCc1ccccc1C(=O)NC1(c2cccc3ccccc23)COC1 [NEU-7769] | 1500 | 3200 | > 10000
3 | COC(=O)/C=C/C(=O)NNC(=O)CCc1ccccc1C(=O)N[C@H](C)c1cccc(-c2cnc(CN3CC[C@H](O)C3)s2)c1 [NEU-7770] | 140 | 880 | > 10000
4 | COC(=O)/C=C/C(=O)NNC(=O)CCc1ccccc1C(=O)N[C@@H](c1cccc2ccccc12)C(F)(F)F [NEU-7772] | > 10000 | – | > 10000
5 | COC(=O)/C=C/C(=O)NNC(=O)CCc1ccccc1C(=O)NC1(c2cccc3ccccc23)CC1 [NEU-7768] | 22 | 250 | > 10000
6 | C[C@@H](NC(=O)c1ccccc1CCC(=O)NNC(=O)/C=C/C(=O)O)c1cccc2ccccc12 [NEU-8114] | 15 | 160 | > 10000
